ChEMBL document CHEMBL1147116 (Antimicrob Agents Chemother, 2007)
In brackets after ≈: the same amount, converted by molar mass.

Tests used:
[1] = Peak free concentration at 150 mg/24 hrs regimen in vitro PK model; format: ADME
[2] = test system: Streptococcus pneumoniae; assay: Susceptibility of Streptococcus pneumoniae BSP-2443 by microdilution method; format: functional; conditions: BSP2443
[3] = test system: Streptococcus pneumoniae; assay: Bactericidal activity against Streptococcus pneumoniae ATCC 49619 at fAUC/MIC of 66 after 24 to 96 hrs in pharmacodynamic model
[4] = test system: Streptococcus pneumoniae; assay: Bactericidal activity against Streptococcus pneumoniae ATCC 49619 at fAUC/MIC of 144 after 24 to 96 hrs in pharmacodynamic model
[5] = Peak free concentration at 175 mg/24 hrs regimen in vitro PK model; format: ADME
[6] = test system: Streptococcus pneumoniae; assay: Bactericidal activity against Streptococcus pneumoniae ATCC 49619 with parC S79Y mutation at fAUC/MIC of 60 after 72 hrs in pharmacodynamic model; conditions: ATCC 49619, 72 h
[7] = test system: Streptococcus pneumoniae; assay: fAUC/MIC ratio of Streptococcus pneumoniae ATCC 49619 at 175 mg
[8] = test system: Streptococcus pneumoniae; assay: fAUC/MIC ratio of Streptococcus pneumoniae BSP-2443 at 198 mg
[9] = test system: Streptococcus pneumoniae; assay: Bactericidal activity against Streptococcus pneumoniae ATCC 49619 at fAUC/MIC of 60 after 24 hrs in pharmacodynamic model; conditions: ATCC 49619, 24 h
[10] = test system: Streptococcus pneumoniae; assay: fAUC/MIC ratio of Streptococcus pneumoniae ATCC 49619 at 100 mg
[11] = test system: Streptococcus pneumoniae; assay: Bactericidal activity against Streptococcus pneumoniae ATCC 49619 with Parc S79Y mutation and gyrA S81F mutation at fAUC/MIC of 35 after 72 hrs in pharmacodynamic model; conditions: ATCC 49619, 72 h
[12] = test system: Streptococcus pneumoniae; assay: Bactericidal activity against Streptococcus pneumoniae ATCC 49619 with S79Y Parc mutation and S81F gyrA mutation at fAUC/MIC of 60 after 96 hrs in pharmacodynamic model; conditions: ATCC 49619, 96 h
[13] = test system: Streptococcus pneumoniae; assay: Bactericidal activity against Streptococcus pneumoniae ATCC 49619 with Parc S79Y mutation at fAUC/MIC of 35 after 24 hrs in pharmacodynamic model; conditions: ATCC 49619, 24 h
[14] = Peak free concentration at 200 mg/24 hrs regimen in vitro PK model; format: ADME
[15] = Half life at 200 mg/24 hrs regimen in vitro PK model; format: ADME
[16] = test system: Streptococcus pneumoniae; assay: Bactericidal activity against Streptococcus pneumoniae ATCC 49619 at fAUC/MIC of 60 after 48 hrs in pharmacodynamic model; conditions: ATCC 49619, 48 h
[17] = Half life at 150 mg/24 hrs regimen in vitro PK model; format: ADME
[18] = test system: Streptococcus pneumoniae; assay: fAUC/MIC ratio of Streptococcus pneumoniae ATCC 49619 at 150 mg
[19] = Half life at 400 mg/24 hrs regimen in vitro PK model; format: ADME
[20] = test system: Streptococcus pneumoniae; assay: Bactericidal activity against Streptococcus pneumoniae BSP-2443 with parC S52G, N91D mutation and gyrA S114G mutation at fAUC/MIC of 51 after 96 hrs in pharmacodynamic model; conditions: BSP2443, 96 h
[21] = test system: Streptococcus pneumoniae; assay: Susceptibility of Streptococcus pneumoniae ATCC 49619 by microdilution method; format: functional
[22] = test system: Streptococcus pneumoniae; assay: Bactericidal activity against Streptococcus pneumoniae ATCC 49619 with Parc S79Y mutation and gyrA S81F mutation at fAUC/MIC of 35 after 96 hrs in pharmacodynamic model; conditions: ATCC 49619, 96 h
[23] = test system: Streptococcus pneumoniae; assay: Bactericidal activity against Streptococcus pneumoniae BSP-2443 at fAUC/MIC of 62 after 24 to 96 hrs in pharmacodynamic model; conditions: BSP2443
[24] = test system: Streptococcus pneumoniae; assay: fAUC/MIC ratio of Streptococcus pneumoniae ATCC 49619 at 200 mg
[25] = test system: Streptococcus pneumoniae; assay: Bactericidal activity against Streptococcus pneumoniae ATCC 49619 at fAUC/MIC of 67 after 24 to 96 hrs in pharmacodynamic model
[26] = test system: Streptococcus pneumoniae; assay: fAUC/MIC ratio of Streptococcus pneumoniae BSP-2443 at 235 mg
[27] = Half life at 100 mg/24 hrs regimen in vitro PK model; format: ADME
[28] = Peak free concentration at 400 mg/24 hrs regimen in vitro PK model; format: ADME
[29] = Peak free concentration at 100 mg/24 hrs regimen in vitro PK model; format: ADME
[30] = test system: Streptococcus pneumoniae; assay: Bactericidal activity against Streptococcus pneumoniae ATCC 49619 with Parc S79Y mutation and gyrA S81F mutation at fAUC/MIC of 35 after 48 hrs in pharmacodynamic model; conditions: ATCC 49619, 48 h
[31] = test system: Streptococcus pneumoniae; assay: Bactericidal activity against Streptococcus pneumoniae BSP-2443 at fAUC/MIC of 51 after 24 to 48 hrs in pharmacodynamic model; conditions: BSP2443
[32] = test system: Streptococcus pneumoniae; assay: fAUC/MIC ratio of Streptococcus pneumoniae ATCC 49619 at 400 mg
[33] = test system: Streptococcus pneumoniae; assay: Bactericidal activity against Streptococcus pneumoniae BSP-2443 with parC S52G, N91D mutation at fAUC/MIC of 51 after 72 hrs in pharmacodynamic model; conditions: BSP2443, 72 h
[34] = Half life at 175 mg/24 hrs regimen in vitro PK model; format: ADME
[35] = test system: Streptococcus pneumoniae; assay: fAUC/MIC ratio of Streptococcus pneumoniae BSP-2443 at 75 mg
[36] = test system: Streptococcus pneumoniae; assay: fAUC/MIC ratio of Streptococcus pneumoniae ATCC 49610 at 320 mg
[37] = test system: Streptococcus pneumoniae; assay: Bactericidal activity against Streptococcus pneumoniae ATCC 49619 at fAUC/MIC of 50.5 after 24 to 96 hrs in pharmacodynamic model
[38] = test system: Streptococcus pneumoniae; assay: fAUC/MIC ratio of Streptococcus pneumoniae ATCC 49610 at 50 mg
[39] = test system: Streptococcus pneumoniae; assay: Bactericidal activity against Streptococcus pneumoniae ATCC 49619 at fAUC/MIC of 65.3 after 24 to 96 hrs in pharmacodynamic model
[40] = test system: Streptococcus pneumoniae; assay: Bactericidal activity against Streptococcus pneumoniae BSP-2443 at fAUC/MIC of 51.3 after 24 to 96 hrs in pharmacodynamic model; conditions: BSP2443
[41] = Half life at 50 mg/24 hrs regimen in vitro PK model; format: ADME
[42] = test system: Streptococcus pneumoniae; assay: Bactericidal activity against Streptococcus pneumoniae BSP-2443 with parC S79Y, S52G, N91D mutation and gyrA S114G mutation at fAUC/MIC of 34 after 72 to 96 hrs in pharmacodynamic model; conditions: BSP2443
[43] = Peak free concentration at 50 mg/24 hrs regimen in vitro PK model; format: ADME
[44] = test system: Streptococcus pneumoniae; assay: fAUC/MIC ratio of Streptococcus pneumoniae BSP-2443 at 50 mg
[45] = test system: Streptococcus pneumoniae; assay: Bactericidal activity against Streptococcus pneumoniae ATCC 49619 with parC S79Y mutation at fAUC/MIC of 37 after 72 hrs in pharmacodynamic model; conditions: ATCC 49619, 72 h
[46] = Peak free concentration at 250 mg/24 hrs regimen in vitro PK model; format: ADME
[47] = test system: Streptococcus pneumoniae; assay: Bactericidal activity against Streptococcus pneumoniae ATCC 49619 at fAUC/MIC of 37 after 24 to 48 hrs in pharmacodynamic model
[48] = test system: Streptococcus pneumoniae; assay: fAUC/MIC ratio of Streptococcus pneumoniae BSP-2443 at 100 mg
[49] = test system: Streptococcus pneumoniae; assay: Bactericidal activity against Streptococcus pneumoniae ATCC 49619 at fAUC/MIC of 78 after 24 to 96 hrs in pharmacodynamic model
[50] = Peak free concentration at 320 mg/24 hrs regimen in vitro PK model; format: ADME
[51] = Half life at 75 mg/24 hrs regimen in vitro PK model; format: ADME
[52] = test system: Streptococcus pneumoniae; assay: Bactericidal activity against Streptococcus pneumoniae BSP-2443 at fAUC/MIC of 60.2 after 24 to 96 hrs in pharmacodynamic model; conditions: BSP2443
[53] = Half life at 250 mg/24 hrs regimen in vitro PK model; format: ADME
[54] = test system: Streptococcus pneumoniae; assay: Bactericidal activity against Streptococcus pneumoniae ATCC 49619 with parC S79Y mutation at fAUC/MIC of 37 after 96 hrs in pharmacodynamic model; conditions: ATCC 49619, 96 h
[55] = Half life at 320 mg/24 hrs regimen in vitro PK model; format: ADME
[56] = test system: Streptococcus pneumoniae; assay: Bactericidal activity against Streptococcus pneumoniae BSP-2443 at fAUC/MIC of 34 after 24 to 48 hrs in pharmacodynamic model; conditions: BSP2443
[57] = Peak free concentration at 75 mg/24 hrs regimen in vitro PK model; format: ADME
[58] = test system: Streptococcus pneumoniae; assay: Bactericidal activity against Streptococcus pneumoniae ATCC 49619 at fAUC/MIC of 119 after 24 to 96 hrs in pharmacodynamic model
[59] = test system: Streptococcus pneumoniae; assay: fAUC/MIC ratio of Streptococcus pneumoniae ATCC 49610 at 250 mg
[60] = test system: Streptococcus pneumoniae; assay: fAUC/MIC ratio of Streptococcus pneumoniae ATCC 49610 at 75 mg
[61] = test system: Streptococcus pneumoniae; assay: Bactericidal activity against Streptococcus pneumoniae ATCC 49619 at fAUC/MIC of 146 after 24 to 96 hrs in pharmacodynamic model

`COc1c(N2CCNC(C)C2)c(F)cc2c(=O)c(C(=O)O)cn(C3CC3)c12` (centres undefined) [GATIFLOXACIN] gave an Activity [1] of 1.13 µg/mL, an MIC [2] of 0.025 µg/mL (≈ 0.0666 µM) and an MIC [3] of 0.19 µg/mL. The MIC [4] was 0.19 µg/mL, the Activity [5] was 1.22 µg/mL and the MIC [6] was 0.75 µg/mL. It also gave a fAUC/MIC [7] of 66, a fAUC/MIC [8] of 51 and an MIC [9] of 0.25 µg/mL. The fAUC/MIC [10] was 35, the MIC [11] was 6 µg/mL and the MIC [12] was 4 µg/mL. The MIC [13] was 0.38 µg/mL, the Activity [14] was 1.38 µg/mL and the half-life [15] was 8.65 h. It also gave an MIC [16] of 0.25 µg/mL, a half-life [17] of 8.16 h and a fAUC/MIC [18] of 60. It also gave a half-life [19] of 8.01 h, an MIC [20] of 3 µg/mL and an MIC [21] of 0.025 µg/mL (≈ 0.0666 µM). It also gave an MIC [22] of 8 µg/mL, an MIC [23] of 0.25 µg/mL and a fAUC/MIC [24] of 67. For the same compound, the MIC [25] was 0.19 µg/mL, the fAUC/MIC [26] was 62 and the half-life [27] was 7.65 h. The Activity [28] was 2.79 µg/mL, the Activity [29] was 0.71 µg/mL and the MIC [30] was 6 µg/mL. It also gave an MIC [31] of 0.25 µg/mL, a fAUC/MIC [32] of 144 and an MIC [33] of 0.38 µg/mL. It also gave a half-life [34] of 7.57 h.

In the case of `CO/N=C1\CN(c2nc3c(cc2F)c(=O)c(C(=O)O)cn3C2CC2)CC1CN` (centres undefined) [GEMIFLOXACIN], the Activity [1] is reported as 0.31 µg/mL, the MIC [2] is reported as 0.025 µg/mL (≈ 0.0642 µM) and the fAUC/MIC [35] is reported as 51.3. For the same compound, the fAUC/MIC [36] was 146, the MIC [37] was 0.03 µg/mL and the fAUC/MIC [38] was 37. It also gave an MIC [39] of 0.03 µg/mL, a fAUC/MIC [10] of 65.3 and an MIC [40] of 0.03 µg/mL. For the same compound, the half-life [41] was 7.45 h, the MIC [42] was 0.125 µg/mL and the Activity [43] was 0.12 µg/mL. The fAUC/MIC [44] was 34, the half-life [17] was 7.5 h and the MIC [45] was 0.25 µg/mL. For the same compound, the fAUC/MIC [18] was 78, the Activity [46] was 0.51 µg/mL and the MIC [47] was 0.03 µg/mL. It also gave an MIC [21] of 0.025 µg/mL (≈ 0.0642 µM), a fAUC/MIC [48] of 69.2 and an MIC [49] of 0.03 µg/mL. The Activity [50] was 0.62 µg/mL, the half-life [51] was 7.19 h and the MIC [52] was 0.03 µg/mL. The half-life [53] was 7.22 h, the MIC [54] was 0.25 µg/mL and the half-life [55] was 7.58 h. The half-life [27] was 8.22 h, the MIC [56] was 0.03 µg/mL and the Activity [57] was 0.17 µg/mL. The MIC [58] was 0.03 µg/mL, the Activity [29] was 0.23 µg/mL and the fAUC/MIC [59] was 119. The fAUC/MIC [60] was 50.5 and the MIC [61] was 0.03 µg/mL.
